# Patent US20220401440A1, “DOSING REGIMENS FOR A PROTEIN KINASE C INHIBITOR” (IDEAYA BIOSCIENCES, INC., priority 2019, published 2022)
# Several values for one entry are separate records, joined by “and”; a condition that tells them apart may be missing. Equal values may be shown once. Read-outs that look alike come from different tables or passages of the source.
# Assays:
# [1] = Hypotension studies: adverse events, single-agent Compound (I), 300 mg BID vs 400 mg BID with 7-day 200 mg run-in (Tables 6, 7); type: in vivo
# Text: Patients with MUM were sequentially enrolled into Cohort 1 or Cohort 2. Enrollment into Cohort 2 was not initiated until enrollment into Cohort 1 was completed and the dose considered safe. • a. Cohort 1. […] Cohort 2. […] All patients continue to receive treatment with Compound (I) unless the subject experiences one or more of the following: • Adverse event • Lost to follow-up • Physician decision • Progressive disease • Study termination by the Sponsor • Patient/guardian decision • Protocol […]
# [2] = Phase 1/2 study: plasma pharmacokinetics of Compound (I) in patients (LC-MS/MS, non-compartmental analysis); type: in vivo, human; details: for Race: mean ± SD; for AUC(0-t) / Cmax: plasma, oral; for Cmax: read-out: Cmax
# Procedure: The following example presents a phase 1/2 study of Compound (I) in patients with solid tumors harboring GNAQ/11 mutations or PRKC fusions.
# Patients with MUM were sequentially enrolled into Cohort 1 or Cohort 2. Enrollment into Cohort 2 was not initiated until enrollment into Cohort 1 was completed and the dose considered safe. • a. Cohort 1. 6 patients were sequentially enrolled and received 300 mg twice a day (BID), daily, for 28-day treatment cycles. • b. Cohort 2. 6 patients were sequentially enrolled and received 400 mg BID, preceded by an initial 7-day 200 mg BID run-in period, for 28-day treatment cycles. All patients continue to receive treatment with Compound (I) unless the subject experiences one or more of the following: • Adverse event • Lost to follow-up • Physician decision • Progressive disease • Study termination by the Sponsor • Patient/guardian decision • Protocol deviation • Non-compliance with protocol • Death • Pregnancy NUMBER OF SUBJECTS: 12 patients
# The following example presents pharmacokinetic results from the study as described in Example 1.
# Blood samples were collected on Cycle 1 Day 1 and Day 15 from patients who were administered 300 mg BID of Compound (I), and on Cycle 1 Day 8 and Day 22 from patients who were administered 200 mg BID for 7 days followed by 400 mg BID of Compound (I) for the remainder of the treatment cycle. The plasma samples were processed by protein precipitation (see Ahuja S and Dong M. W, Handbook of Pharmaceutical Analysis by HPLC, Elsevier Inc., Chapter 17, page 433, 2005) and analyzed using an LC-MS/MS method; Quantification was achieved using Compound (I) peak area to internal standard (3-amino-N-(3-(4-amino-4-(methyl-d3)piperidin-1-yl)pyridin-2-yl)-6-(3-(trifluoromethyl)pyridin-2-yl)pyrazine-2-carboxamide) peak area ratios. Concentrations of the calibration curve standards, quality control samples, and patient samples were determined by the method of 1/x^2 weighted least squares linear regression.
# The Pharmacokinetic parameters were calculated using Phoenix WinNonlin software (non-compartmental analysis).
# [3] = 300 mg BID, N = 26, regardless of study drug relationship
# [4] = 400 mg BID with 7-day 200 mg run-in, N = 30
# [5] = 400 mg BID with 7-day 200 mg run-in, N = 30, regardless of study drug relationship
# [6] = All Patients, N = 56, regardless of study drug relationship
# [7] = individual patients, 300 mg BID
smiles,measurement,setting,value
"CC1(N)CCN(c2cccnc2NC(=O)c2nc(-c3ncccc3C(F)(F)F)cnc2N)CC1 [Compound (I), 3-amino-N-(3-(4-amino-4-methylpiperidin-1-yl)pyridin-2-yl)-6-(3-(trifluoromethyl)pyridin-2-yl)pyrazine-2-carboxamide]","Hypotension, all grades, treatment-emergent, suspected to be study related","[1]; 300 mg BID, N = 26",1 (3.8) n (%)
same,"Hypotension, grade 3/4, treatment-emergent, suspected to be study related","[1]; 300 mg BID, N = 26",0 n (%)
same,"Hypotension, all grades",[1]; [3],1 (3.8) n (%)
same,"Hypotension, grade 3/4",[1]; [3],0 n (%)
same,"Hypotension, all grades, treatment-emergent, suspected to be study related",[1]; [4],2 (6.7) n (%)
same,"Hypotension, grade 3/4, treatment-emergent, suspected to be study related",[1]; [4],0 n (%)
same,"Hypotension, all grades",[1]; [5],4 (13.3) n (%)
same,"Hypotension, grade 3/4",[1]; [5],0 n (%)
same,"Hypotension, all grades, treatment-emergent, suspected to be study related","[1]; All Patients, N = 56",3 (5.4) n (%)
same,"Hypotension, grade 3/4, treatment-emergent, suspected to be study related","[1]; All Patients, N = 56",0 n (%)
same,"Hypotension, all grades",[1]; [6],5 (8.9) n (%)
same,"Hypotension, grade 3/4",[1]; [6],0 n (%)
same,frequency of hypotension at 400 mg BID with 200 mg run-in vs 400 mg BID alone,[1]; in vivo,less frequently
same,Free AUC0-12 (mean free plasma),[2]; 300 mg BID,260 ± 95 ng·h/mL
same,Cmin,"[2]; 300 mg BID, Cycle 1 Day 15, mean ± SD, n = 12",790 ± 345 ng/mL
same,Race,"[2]; 300 mg BID, n = 12",0.74 ± 0.31
same,Free AUC0-12 (mean free plasma),[2]; 400 mg BID with 200 mg run-in,396 ± 222 ng·h/mL
same,Cmin,"[2]; 400 mg BID with 200 mg run-in, Cycle 1 Day 22, mean ± SD, n = 24",1120 ± 806 ng/mL
same,Race,"[2]; 400 mg BID with 200 mg run-in, n = 24",0.97 ± 0.29
same,mean exposure on C1D8 (200 mg BID 7 days then 400 mg BID) compared to C1D1 of 300 mg BID,"[2]; human, in vivo",lower mean exposure
same,"mean free plasma AUC0-12, higher at 400 mg BID with 200 mg run-in than at 300 mg BID","[2]; human, in vivo",about 44%
same,AUC(0-t),"[2]; human, 300 mg, 300 mg BID, Cycle 1 Day 1, mean ± SD, n = 12, read-out: AUC0-12",26200 ± 11100 ng·h/mL
same,Cmax,"[2]; human, 300 mg, 300 mg BID, Cycle 1 Day 1, mean ± SD, n = 12",4600 ± 2300 ng/mL
same,AUC(0-t),"[2]; human, 300 mg, 300 mg BID, Cycle 1 Day 15, mean ± SD, n = 12, read-out: AUC0-12",16800 ± 5380 ng·h/mL
same,Cmax,"[2]; human, 300 mg, 300 mg BID, Cycle 1 Day 15, mean ± SD, n = 12",2860 ± 690 ng/mL
same,AUC(0-t),"[2]; human, 300 mg, individual patient 10001-00022, 300 mg BID, C1 Day 1 (footnote a: AUC0-8), read-out: AUC0-8",35900 ng·h/mL
same,AUC(0-t),"[2]; human, 400 mg BID, 400 mg BID with 200 mg run-in, Cycle 1 Day 8, mean ± SD, n = 24, read-out: AUC0-12",24400 ± 12100 ng·h/mL
same,Cmax,"[2]; human, 400 mg BID, 400 mg BID with 200 mg run-in, Cycle 1 Day 8, mean ± SD, n = 24",3930 ± 1880 ng/mL
same,AUC(0-t),"[2]; human, 400 mg BID, 400 mg BID with 200 mg run-in, Cycle 1 Day 22, mean ± SD, n = 24, read-out: AUC0-12",21500 ± 10800 ng·h/mL
same,Cmax,"[2]; human, 400 mg BID, 400 mg BID with 200 mg run-in, Cycle 1 Day 22, mean ± SD, n = 24",3580 ± 1390 ng/mL
same,AUC ratio D15/D1,[2]; [7],0.83 and 0.87 and 1.53 and 0.67 and 1.1 and 0.66 (2×) and 0.44 and 0.51 and 0.41 and 0.62 and 1.22 and 0.61
same,Cmin on C1D15,[2]; [7],645 ng/mL and 626 ng/mL and 175 ng/mL and 792 ng/mL and 1075 ng/mL and 1212 ng/mL and 1088 ng/mL and 798 ng/mL and 322 ng/mL and 1337 ng/mL and 1549 ng/mL and 715 ng/mL and 699 ng/mL
